Assay results taken from patent US5179091A, “Chalcones” (Adir et Compagnie, priority 1990, dated 1993).

Columns and labels:
[1] = test system: rat brain homogenates; test: Inhibition of lipid peroxidation induced by the Fe++/ascorbate system; type: biochemical; settings: concentration of 10^-5 M, Fe++/ascorbate (10 μM/250 μM)
Protocol: A study of the capacity of the compounds of the invention to trap free OH. radicals was studied on rat brain homogenates on the other hand with respect to peroxidation induced by the Fe++/ascorbate (10 μM/250 μM) system. The rat brain homogenates are placed in the presence or absence of the test compounds for 60 minutes at 37° C. The intensity of lipid peroxidation in the presence and in the absence of the compounds of the invention is determined by the substances reacting with thiobarbituric acid, expressed in mmol of malondialdehyde, by a method derived from that of […], Biochem. Med. 1976, 15, 212-216). The methodology is identical, with the exception of the addition to the homogenate of the Fe++/ascorbate radical-inducing system.

[2] = test system: rat brain homogenates; test: Inhibition of spontaneous lipid peroxidation (thiobarbituric acid reacting substances); type: biochemical; settings: concentration of 10^-5 M, 60 minutes at 37° C.
Protocol: A study of the capacity of the compounds of the invention to trap free OH. radicals was studied on rat brain homogenates on the one hand with respect to the spontaneous peroxidation of lipids, The rat brain homogenates are placed in the presence or absence of the test compounds for 60 minutes at 37° C. The intensity of lipid peroxidation in the presence and in the absence of the compounds of the invention is determined by the substances reacting with thiobarbituric acid, expressed in mmol of malondialdehyde, by a method derived from that of […], Biochem. Med. 1976, 15, 212-216).

[3] = test system: native LDL; test: Level of LDL oxidation by Cu++, oxidation products assayed by FPLC; type: biochemical; settings: relative to probucol (i=1)
Protocol: Under these conditions, free radicals are generated by Cu++ in a medium containing native LDL in the presence or absence of the test compounds. The reaction is stopped by adding 2,6-di-tert-butyl-4-methylphenol and EDTA to the reaction medium and the oxidation products are assayed by FPLC.
D being the height of the peak of fraction 27/28 of the chromatogram; the sum of the oxidized fractions 27/28 and 31/32 is equal to 100.

[4] = molecular target: T1, lipoxygenase (Homo sapiens, UniProt P09917); test: Inhibition of lipoxygenase activity, LTB4 measured by radioimmunoassay; type: cell-based; settings: concentration of 10^-5 M, washed human polynuclear cells activated by calcium; read-out: inhibition of lipoxygenase action (LTB4 produced)
T1 construct: endogenous in cells
T1 sequence (P09917 1-674): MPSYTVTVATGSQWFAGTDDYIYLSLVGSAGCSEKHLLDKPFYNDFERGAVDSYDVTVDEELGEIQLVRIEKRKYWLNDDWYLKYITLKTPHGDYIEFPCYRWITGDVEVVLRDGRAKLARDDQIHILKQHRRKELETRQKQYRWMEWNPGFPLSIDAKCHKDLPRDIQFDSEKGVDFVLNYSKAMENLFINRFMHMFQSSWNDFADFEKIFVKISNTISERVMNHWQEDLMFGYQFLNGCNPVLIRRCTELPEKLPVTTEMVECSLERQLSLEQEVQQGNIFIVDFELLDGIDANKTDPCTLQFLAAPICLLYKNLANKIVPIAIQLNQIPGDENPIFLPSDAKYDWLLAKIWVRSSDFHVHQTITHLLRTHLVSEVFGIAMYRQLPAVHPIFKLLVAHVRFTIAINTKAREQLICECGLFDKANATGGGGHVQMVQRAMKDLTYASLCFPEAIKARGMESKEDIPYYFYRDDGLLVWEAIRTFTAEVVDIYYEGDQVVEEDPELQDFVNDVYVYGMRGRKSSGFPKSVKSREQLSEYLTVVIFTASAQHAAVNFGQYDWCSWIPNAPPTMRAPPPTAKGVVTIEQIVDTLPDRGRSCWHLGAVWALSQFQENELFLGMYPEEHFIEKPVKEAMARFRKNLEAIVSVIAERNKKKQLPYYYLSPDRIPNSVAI
Protocol: The lipoxygenase activity is measured using washed human polynuclear cells, in the presence and absence of the claimed compounds after activation by calcium (A 23/87). The leukotriene B4 (LTB4) produced is measured by radioimmunoassay (Gresele, P. et al. Biochem. Biophys. Res. Comm. 1986, 137, 334-342).

[5] = Inhibition of formation of conjugated dienes formed by free-radical activity; type: biochemical; settings: 10^-5 M concentration, linoleic acid emulsion, Fe2+/Fe3+ mixture
From the text: This methodology consists in generating free OH- radicals in an emulsion of linoleic acid, by means of a system consisting of an Fe^2+ /Fe^3+ mixture.

[6] = test system: Human red cells; test: AAPH-induced hemolysis; type: cell-based; settings: Erythrocyte, 0.5 h, concentration of 10^-5 M, 30 minutes at 37° C.

inhibition at 10 µM [4] [%] | Compound | inhibition of induced peroxidation [1] [%] | inhibition of spontaneous peroxidation [2] | LDL oxidation: oxidized fraction 27/28 of the chromatogram [3] | also measured
– | Cn1c(=O)sc2cc(C(=O)C=Cc3cc(C(C)(C)C)c(O)c(C(C)(C)C)c3)ccc21 [Example 4, 6-(3',5'-di-tert-butyl-4'-hydroxycinnamoyl)-3-methylbenzothiazolinone] | ~30 | – | – | –
– | Cn1c(=O)oc2cc3c(cc21)CC(=Cc1cc(C(C)(C)C)c(O)c(C(C)(C)C)c1)C3=O [Example 40, 2,3-dihydro-3-methyl-2,7-dioxo-6-(3',5'-di-tert-butyl-4'-hydroxybenzylidene)cyclopenta[f]benzoxazole-2,7-dione] | – | approximately 50% | – | –
~60 | Cn1c(=O)oc2cc3c(cc21)C(c1ccccc1)C(=Cc1cc(C(C)(C)C)c(O)c(C(C)(C)C)c1)C3=O (stereo not drawn) [Example 36, 2,3-dihydro-3-methyl-5-phenyl-6-(3',5'-di-tert-butyl-4'-hydroxybenzylidene)cyclopenta[f]benzoxazole-2,7-dione] | ~50 | approximately 50% | oxidized fraction 27/28 disappears | inhibition of diene formation [5]: approximately 50%
~60 | CC(C)(C)c1cc(C=C2C(=O)c3cc4oc(=O)[nH]c4cc3C2c2ccccc2)cc(C(C)(C)C)c1O (stereo not drawn) [Example 35, 2,3-dihydro-5-phenyl-6-(3',5'-di-tert-butyl-4'-hydroxybenzylidene)cyclopenta[f]benzoxazole-2,7-dione] | ~50 | approximately 50% | oxidized fraction 27/28 disappears | –
– | CC1CC(=Cc2cc(C(C)(C)C)c(O)c(C(C)(C)C)c2)C(=O)c2cc3c(cc21)oc(=O)n3C (stereo not drawn) [Example 28, 2,3-dihydro-3,8-dimethyl-6-(3',5'-di-tert-butyl-4'-hydroxybenzylidene)cyclohexa[f]benzoxazone-2,5-dione] | – | – | oxidized fraction 27/28 disappears | –
~60 | Cn1c(=O)oc2cc(C(=O)C=Cc3cc(C(C)(C)C)c(O)c(C(C)(C)C)c3)ccc21 [Example 5, 6-(3',5'-di-tert-butyl-4'-hydroxycinnamoyl)-3-methylbenzoxazolinone] | – | – | – | –
– | CC(C)(C)c1cc(C=CC(=O)c2ccc3[nH]c(=O)oc3c2)cc(C(C)(C)C)c1O [Example 6, 6-(3',540-di-tert-butyl-4'-hydroxycinnamoyl)benzoxazolinone] | – | – | – | inhibition of diene formation [5]: approximately 75%
– | vitamin E [reference compound] | 6 | 18% | – | –
44 | CC(C)(Sc1cc(C(C)(C)C)c(O)c(C(C)(C)C)c1)Sc1cc(C(C)(C)C)c(O)c(C(C)(C)C)c1 [probucol, reference compound] | 27 | 37% | – | inhibition at 10 µM [6]: 48%
~80 | Cn1c(=O)oc2ccc(C(=O)C=Cc3cc(C(C)(C)C)c(O)c(C(C)(C)C)c3)cc21 [Example 1, 5-(3',5'-di-tert-butyl-4'-hydroxycinnamo-yl)-3-methylbenzoxazolinone] | – | – | – | –
– | CC1C(=Cc2cc(C(C)(C)C)c(O)c(C(C)(C)C)c2)C(=O)c2cc3oc(=O)[nH]c3cc21 (stereo not drawn) [Example 33, 2,3-dihydro-5-methyl-6-(3',5'-di-tert-butyl-4'-hydroxybenzylidene)cyclopenta[f]benzoxa-zone-2,6-dione] | ~50 | approximately 50% | oxidized fraction 27/28 disappears | –
– | CC(C)(C)c1cc(C=CC(=O)c2ccc3c(c2)OCC(=O)N3)cc(C(C)(C)C)c1O [Example 7, 7-(3',54- -di-tert-butyl-4'-hydroxycinnamoyl)-1,4-benzoxazin-3-one] | – | – | – | inhibition of diene formation [5]: approximately 75%
– | CC1C(=Cc2cc(C(C)(C)C)c(O)c(C(C)(C)C)c2)C(=O)c2cc3oc(=O)n(C)c3cc21 (stereo not drawn) [Example 27, 2,3-dihydro-3,5-dimethyl-6-(3',5'-di-tert-butyl-4'-hydroxybenzylidene)cyclopenta[f]benzoxazone-2,7-dione] | – | – | oxidized fraction 27/28 disappears | –
– | CC1C(=Cc2cc(C(C)(C)C)c(O)c(C(C)(C)C)c2)C(=O)c2cc3c(cc21)oc(=O)n3C (stereo not drawn) [Example 29, 2,3-dihydro-3,7-dimethyl-6-(3',5'-di-tert-butyl-4'-hydroxybenzylidene)cyclopenta[f]benzoxazole-2,5-dione] | – | – | oxidized fraction 27/28 disappears | –
